Data as given in US20250313535A1, “ALPHA 4 BETA 7 INTEGRIN MODULATORS AND USES THEREOF” (DICE MOLECULES SV, INC., priority 2022, published 2025).
Where two headings read alike, the source gives them in different places.

What was measured:
α4β1 integrin = α4β1 integrin (Homo sapiens (Human), UniProt P05556+P13612); assay: Integrin Adhesion Assay: Protocol 5 (VCAM-coated plate, RPMI-8866 cells with stable LOF mutation of the ITGB7 gene); assay type: cell-based
Outline: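 RPMI-8866 B cells with CRISPR/Cas9 ITGB7 knockout (clonal, verified by flow cytometry) adhered to VCAM-coated wells for 1 h at 37° C in HEPES/NaCl buffer with 1 mM MnCl2, 0.1 mM CaCl2, 1% BSA, 1% DMSO. Bound cells quantified by CellTiter-Glo luminescence after washing; % inhibition versus DMSO and control, 4-parameter fit.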

α4β7 integrin = α4β7 integrin (Homo sapiens (Human), UniProt P13612+P26010); assay: Integrin Adhesion Assay: Protocol 4 (MAdCAM-coated plate, RPMI-8866 cells with stable LOF mutation of the ITGB1 gene); assay type: cell-based
Outline: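 RPMI-8866 cells with CRISPR/Cas9 knockout of ITGB1 (2×10^6/mL) were added to MAdCAM-coated wells with compound (1% DMSO) in HEPES/NaCl buffer with 1 mM MnCl2, 0.1 mM CaCl2 and 1% BSA, then incubated 1 h at 37 °C. After four washes, adherent cells were quantified by CellTiter-Glo luminescence. Percent inhibition versus DMSO and control compound was fitted to 4-parameter curves.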

[1] = Protocol 5, RPMI-8866 cells with LOF mutation of ITGB7, VCAM, read-out: Mean IC50 α4β1 KO
[2] = Protocol 4, RPMI-8866 cells with LOF mutation of ITGB1, MAdCAM, read-out: Mean IC50 α4β7 KO
[3] = RPMI-8866 cells with stable LOF mutation of the ITGB7 gene, read-out: Mean IC50 α4β1 KO^b
[4] = RPMI-8866 cells with stable LOF mutation of the ITGB1 gene, read-out: Mean IC50 α4β7 KO^a

Sequence of α4β1 integrin (P13612 34-1032): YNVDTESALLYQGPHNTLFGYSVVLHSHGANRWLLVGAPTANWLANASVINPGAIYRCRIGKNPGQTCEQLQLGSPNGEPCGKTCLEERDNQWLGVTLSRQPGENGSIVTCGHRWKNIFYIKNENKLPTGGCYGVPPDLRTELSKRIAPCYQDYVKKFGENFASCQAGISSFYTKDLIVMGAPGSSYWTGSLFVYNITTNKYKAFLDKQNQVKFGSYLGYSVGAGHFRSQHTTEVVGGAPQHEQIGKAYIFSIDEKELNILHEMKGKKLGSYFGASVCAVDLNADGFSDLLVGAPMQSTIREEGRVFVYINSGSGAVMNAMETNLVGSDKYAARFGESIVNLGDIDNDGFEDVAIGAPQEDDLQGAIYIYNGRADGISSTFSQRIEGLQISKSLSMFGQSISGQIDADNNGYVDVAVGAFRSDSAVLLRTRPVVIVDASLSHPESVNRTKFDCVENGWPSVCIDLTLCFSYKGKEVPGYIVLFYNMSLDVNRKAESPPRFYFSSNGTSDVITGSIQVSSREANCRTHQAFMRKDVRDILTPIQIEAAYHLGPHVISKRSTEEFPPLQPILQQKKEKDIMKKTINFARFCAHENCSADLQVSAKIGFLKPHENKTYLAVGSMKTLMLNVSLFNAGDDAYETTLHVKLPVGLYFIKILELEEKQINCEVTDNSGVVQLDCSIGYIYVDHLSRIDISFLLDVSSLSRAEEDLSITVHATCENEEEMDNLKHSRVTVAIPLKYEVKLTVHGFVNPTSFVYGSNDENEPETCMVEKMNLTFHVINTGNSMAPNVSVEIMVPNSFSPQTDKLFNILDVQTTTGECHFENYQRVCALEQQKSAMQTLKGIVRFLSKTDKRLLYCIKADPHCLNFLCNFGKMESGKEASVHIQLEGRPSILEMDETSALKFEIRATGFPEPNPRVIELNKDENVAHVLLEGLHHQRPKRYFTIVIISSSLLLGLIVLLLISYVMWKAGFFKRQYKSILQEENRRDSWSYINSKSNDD
Sequence of α4β1 integrin (P05556 21-798): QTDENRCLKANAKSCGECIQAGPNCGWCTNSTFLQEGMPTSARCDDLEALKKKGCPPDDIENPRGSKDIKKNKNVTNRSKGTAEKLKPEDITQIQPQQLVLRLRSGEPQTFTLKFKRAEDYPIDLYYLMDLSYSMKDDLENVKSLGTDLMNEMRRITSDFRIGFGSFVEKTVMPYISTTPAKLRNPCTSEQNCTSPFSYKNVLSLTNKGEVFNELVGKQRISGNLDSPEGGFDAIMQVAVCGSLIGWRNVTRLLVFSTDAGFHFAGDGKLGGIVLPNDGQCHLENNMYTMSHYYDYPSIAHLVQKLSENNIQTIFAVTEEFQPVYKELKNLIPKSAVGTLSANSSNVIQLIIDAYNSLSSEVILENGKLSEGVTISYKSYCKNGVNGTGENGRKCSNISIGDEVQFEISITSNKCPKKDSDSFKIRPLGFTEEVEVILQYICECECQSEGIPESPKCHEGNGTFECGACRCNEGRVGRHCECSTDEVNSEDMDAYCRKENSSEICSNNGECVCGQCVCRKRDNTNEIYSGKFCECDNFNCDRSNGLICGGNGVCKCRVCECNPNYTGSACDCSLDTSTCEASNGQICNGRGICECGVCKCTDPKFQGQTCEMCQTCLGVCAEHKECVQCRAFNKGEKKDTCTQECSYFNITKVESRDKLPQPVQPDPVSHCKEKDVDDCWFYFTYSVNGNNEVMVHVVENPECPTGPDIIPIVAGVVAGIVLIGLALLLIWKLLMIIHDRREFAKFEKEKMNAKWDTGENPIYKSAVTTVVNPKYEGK
Sequence of α4β7 integrin (P13612 34-1032): as the sequence (P13612 34-1032) above
Sequence of α4β7 integrin (P26010 20-798): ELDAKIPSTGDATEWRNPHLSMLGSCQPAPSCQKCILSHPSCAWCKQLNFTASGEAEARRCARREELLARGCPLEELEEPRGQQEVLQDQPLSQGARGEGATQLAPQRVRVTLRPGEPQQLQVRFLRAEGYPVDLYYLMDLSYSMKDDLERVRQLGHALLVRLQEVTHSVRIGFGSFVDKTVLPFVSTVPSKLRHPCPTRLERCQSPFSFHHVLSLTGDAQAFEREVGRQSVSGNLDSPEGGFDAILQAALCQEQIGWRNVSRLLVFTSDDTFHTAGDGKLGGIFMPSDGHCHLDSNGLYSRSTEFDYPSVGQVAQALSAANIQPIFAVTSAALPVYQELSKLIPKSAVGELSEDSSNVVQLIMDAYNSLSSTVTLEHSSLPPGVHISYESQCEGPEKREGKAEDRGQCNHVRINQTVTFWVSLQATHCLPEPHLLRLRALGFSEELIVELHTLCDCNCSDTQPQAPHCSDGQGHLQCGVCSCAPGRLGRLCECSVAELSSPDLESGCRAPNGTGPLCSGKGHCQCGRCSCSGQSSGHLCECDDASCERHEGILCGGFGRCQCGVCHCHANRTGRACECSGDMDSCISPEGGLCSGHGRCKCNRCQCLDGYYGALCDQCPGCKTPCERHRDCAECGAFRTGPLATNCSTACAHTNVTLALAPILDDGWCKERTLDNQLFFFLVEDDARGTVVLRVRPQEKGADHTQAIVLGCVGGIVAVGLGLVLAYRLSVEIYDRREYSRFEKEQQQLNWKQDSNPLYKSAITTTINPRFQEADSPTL

COc1ccc(CN2CCOCC2)c(OC)c1-c1cccc2c(C[C@H](NC(=O)C3(C(F)(F)F)CCN(CC(F)(F)F)CC3)C(=O)O)cccc12 [Compound 785]
IC50 (α4β1 integrin; [1]): 100 to 1000 nM
IC50 (α4β7 integrin; [2]): 10 to 100 nM

O=C(O)[C@H](Cc1cccc2c(-c3ncc(CN4CCC(C(F)(F)F)CC4)c4ccccc34)cccc12)NC(=O)C1(C(F)(F)F)CCN(CC(F)(F)F)CC1 [Compound 874]
IC50 (α4β1 integrin; [1]): > 1000 nM
IC50 (α4β7 integrin; [2]): 10 to 100 nM

O=C(O)[C@H](Cc1cccc2c(-c3ncc(CN4CCCCC4)c4ccccc34)cccc12)NC(=O)C1(C(F)(F)F)CCN(C2CC(F)(F)C2)CC1 [Compound 681]
IC50 (α4β1 integrin; [3]): 100 to 1000 nM
IC50 (α4β7 integrin; [4]): < 10 nM

COc1ccc(CN(C)C)c(OC)c1-c1cccc2c(C[C@H](NC(=O)c3c(C)cc(C(F)(F)F)cc3F)C(=O)O)cccc12 [Compound 603]
IC50 (α4β1 integrin; [3]): > 1000 nM
IC50 (α4β7 integrin; [4]): 10 to 100 nM

COc1ccc(CN(C)C)c(OC)c1-c1cccc2c(C[C@H](NC(=O)c3c(F)ccc(F)c3C)C(=O)O)cccc12 [Compound 589]
IC50 (α4β1 integrin; [3]): > 1000 nM
IC50 (α4β7 integrin; [4]): < 10 nM

COc1cccc(CN2CCCCC2)c1-c1cccc2c(C[C@H](NC(=O)c3c(C)cccc3F)C(=O)O)cccc12 [Compound 1014]
IC50 (α4β1 integrin; [1]): 100 to 1000 nM
IC50 (α4β7 integrin; [2]): < 10 nM

COc1cccc(CCN2CCC(C)(C)CC2)c1-c1cccc2c(C[C@H](NC(=O)c3c(C)cccc3F)C(=O)O)cccc12 [Compound 1033]
IC50 (α4β1 integrin; [1]): 100 to 1000 nM
IC50 (α4β7 integrin; [2]): < 10 nM

COc1ccc2ccnc(-c3cccc4c(C[C@H](NC(=O)C5(C(F)(F)F)CCN(CC(F)(F)F)CC5)C(=O)O)cccc34)c2c1 [Compound 777]
IC50 (α4β1 integrin; [1]): > 1000 nM
IC50 (α4β7 integrin; [2]): 10 to 100 nM

C[C@@H]1CN(Cc2cnc(-c3cccc4c(C[C@H](NC(=O)C5(C(F)(F)F)CCN(CC(F)(F)F)CC5)C(=O)O)cccc34)c3ccccc23)C[C@H](C)N1C1CC1 [Compound 892]
IC50 (α4β1 integrin; [1]): 100 to 1000 nM
IC50 (α4β7 integrin; [2]): < 10 nM

O=C(O)[C@H](Cc1cccc2c(-c3ncc(CN4CCC(F)(F)CC4)cc3C3CC3)cccc12)NC(=O)C1(C(F)(F)F)CCN(CC(F)(F)F)CC1 [Compound 947]
IC50 (α4β1 integrin; [1]): 100 to 1000 nM
IC50 (α4β7 integrin; [2]): < 10 nM

O=C(O)[C@H](Cc1cccc2c(-c3nccc4ccc(CCCN5CCCCC5)cc34)cccc12)NC(=O)C1(C(F)(F)F)CCN(CC(F)F)CC1 [Compound 748]
IC50 (α4β1 integrin; [1]): > 1000 nM
IC50 (α4β7 integrin; [2]): < 10 nM

O=C(O)[C@H](Cc1cccc2c(-c3ncc(CN4CCC4)c4ccccc34)cccc12)NC(=O)C1(C(F)(F)F)CCN(CC(F)F)CC1 [Compound 920]
IC50 (α4β1 integrin; [1]): > 1000 nM
IC50 (α4β7 integrin; [2]): < 10 nM

COc1cccc(F)c1C(=O)N[C@@H](Cc1cccc2c(-c3c(OC)ccc(CN4CCCCC4)c3OC)cccc12)C(=O)O [Compound 647]
IC50 (α4β1 integrin; [3]): 100 to 1000 nM
IC50 (α4β7 integrin; [4]): < 10 nM

COC(=O)[C@H](Cc1cccc2c(-c3nc(CN4CCCCC4)cc4ccncc34)cccc12)NC(=O)C1(C(F)(F)F)CCN(CC(F)(F)F)CC1 [Compound 994]
IC50 (α4β1 integrin; [1]): > 1000 nM
IC50 (α4β7 integrin; [2]): 10 to 100 nM

O=C(O)[C@H](Cc1cccc2c(-c3c(CN4CCCCC4)ccc4ccncc34)cccc12)NC(=O)C1(C(F)(F)F)CCN(CC(F)(F)F)CC1 [Compound 802]
IC50 (α4β1 integrin; [1]): > 1000 nM
IC50 (α4β7 integrin; [2]): < 10 nM

COc1ccc(CN2CCC(F)CC2)c(C(F)(F)F)c1-c1cccc2c(C[C@H](NC(=O)c3c(C)cccc3F)C(=O)O)cccc12 [Compound 574]
IC50 (α4β1 integrin; [3]): > 1000 nM
IC50 (α4β7 integrin; [4]): 10 to 100 nM

O=C(O)[C@H](Cc1cccc2c(-c3nccc4c(CN5CCCCC5)cccc34)cccc12)NC(=O)C1(C(F)(F)F)CCN([C@@H]2COCC2(F)F)CC1 [Compound 642]
IC50 (α4β1 integrin; [3]): > 1000 nM
IC50 (α4β7 integrin; [4]): < 10 nM

Cn1c(=O)c(-c2cccc3c(C[C@H](NC(=O)c4c(F)cccc4F)C(=O)O)cccc23)c(C(F)(F)F)c2cc(CN)ccc21 [Compound 1051]
IC50 (α4β1 integrin; [1]): 100 to 1000 nM
IC50 (α4β7 integrin; [2]): < 10 nM

COc1ccc(CN2CCC(F)(F)CC2)c(OC)c1-c1cccc2c(C[C@H](NC(=O)c3c(C)ccnc3F)C(=O)O)cccc12 [Compound 606]
IC50 (α4β1 integrin; [3]): > 1000 nM
IC50 (α4β7 integrin; [4]): 10 to 100 nM

COc1ccc(CN2CC(OC)C2)c(OC)c1-c1cccc2c(C[C@H](NC(=O)c3c(C)cccc3F)C(=O)O)cccc12 [Compound 638]
IC50 (α4β1 integrin; [3]): 100 to 1000 nM
IC50 (α4β7 integrin; [4]): < 10 nM

COc1cccc(CN2CCCCC2)c1-c1cccc2c(C[C@H](NC(=O)c3c(F)ccc(F)c3C)C(=O)O)cccc12 [Compound 543]
IC50 (α4β1 integrin; [3]): > 1000 nM
IC50 (α4β7 integrin; [4]): < 10 nM

COc1ccc(CN2CCCC2)c(OC)c1-c1cccc2c(C[C@H](NC(=O)C3(C(F)(F)F)CCN(CC(F)(F)F)CC3)C(=O)O)cccc12 [Compound 782]
IC50 (α4β1 integrin; [1]): 100 to 1000 nM
IC50 (α4β7 integrin; [2]): < 10 nM

COc1ccc(CN2CCC(CF)CC2)c(OC)c1-c1cccc2c(C[C@H](NC(=O)c3c(C)cccc3F)C(=O)O)cccc12 [Compound 652]
IC50 (α4β1 integrin; [3]): 100 to 1000 nM
IC50 (α4β7 integrin; [4]): < 10 nM

COc1cc(CN2CCC(C(F)(F)F)CC2)cnc1-c1cccc2c(C[C@H](NC(=O)c3c(C)cccc3F)C(=O)O)cccc12 [Compound 996]
IC50 (α4β1 integrin; [1]): > 1000 nM
IC50 (α4β7 integrin; [2]): 10 to 100 nM

Cn1c(=O)c(-c2cccc3c(C[C@H](NC(=O)C4(C(F)(F)F)CCN(CC(F)(F)F)CC4)C(=O)O)cccc23)c(C(F)(F)F)c2cc(CN3CCC(c4ccccc4)CC3)ccc21 [Compound 837]
IC50 (α4β1 integrin; [1]): 100 to 1000 nM
IC50 (α4β7 integrin; [2]): 10 to 100 nM

COc1c(CN2CCCCC2)cc2cccnc2c1-c1cccc2c(C[C@H](NC(=O)C3(C(F)(F)F)CCN(CC(F)(F)F)CC3)C(=O)O)cccc12 [Compound 792]
IC50 (α4β1 integrin; [1]): > 1000 nM
IC50 (α4β7 integrin; [2]): 10 to 100 nM

COc1ccc(CN2CCC(F)(F)CC2)c(OC)c1-c1cccc2c(C[C@H](NC(=O)c3c(C)cccc3F)C(=O)O)cccc12 [Compound 634]
IC50 (α4β1 integrin; [3]): > 1000 nM
IC50 (α4β7 integrin; [4]): 10 to 100 nM

Cn1c(=O)c(-c2cccc3c(C[C@H](NC(=O)C4(C(F)(F)F)CCN(C(C(F)(F)F)C(F)(F)F)CC4)C(=O)O)cccc23)c(C(F)(F)F)c2ccccc21 [Compound 490]
IC50 (α4β1 integrin; [3]): > 1000 nM
IC50 (α4β7 integrin; [4]): > 1000 nM

Cn1c(=O)c(-c2cccc3c(C[C@H](NC(=O)C4(C(F)(F)F)CCN(C5CCOC(C(F)(F)F)C5)CC4)C(=O)O)cccc23)c(C(F)(F)F)c2ccccc21 (stereo partly drawn) [Compound 514]
IC50 (α4β1 integrin; [3]): > 1000 nM
IC50 (α4β7 integrin; [4]): 10 to 100 nM

O=C(O)[C@H](Cc1cccc2c(-c3ncc(CN4CC5CC(C5)C4)c4ccccc34)cccc12)NC(=O)C1(C(F)(F)F)CCN(CC(F)F)CC1 [Compound 907]
IC50 (α4β1 integrin; [1]): > 1000 nM
IC50 (α4β7 integrin; [2]): < 10 nM

O=C(O)[C@H](Cc1cccc2c(-c3ncc(CN4CCCCC4)c4ccccc34)cccc12)NC(=O)C1(C(F)(F)F)CCN([C@H]2COCC2(F)F)CC1 [Compound 680]
IC50 (α4β1 integrin; [3]): 100 to 1000 nM
IC50 (α4β7 integrin; [4]): < 10 nM

Cn1c(=O)c(-c2cccc3c(C[C@H](NC(=O)C4(C(F)(F)F)CCN(CC(F)F)CC4)C(=O)O)cccc23)c(C(F)(F)F)c2ccccc21 (racemic) [Compound 480]
IC50 (α4β1 integrin; [3]): 100 to 1000 nM
IC50 (α4β7 integrin; [4]): < 10 nM

CC[C@@H]1CCCN1Cc1cnc(-c2cccc3c(C[C@H](NC(=O)C4(C(F)(F)F)CCN(CC(F)(F)F)CC4)C(=O)O)cccc23)c2ccccc12 [Compound 935]
IC50 (α4β1 integrin; [1]): > 1000 nM
IC50 (α4β7 integrin; [2]): < 10 nM

Cc1cc(C2CCN(C)CC2)cnc1-c1cccc2c(C[C@H](NC(=O)C3(C(F)(F)F)CCN(CC(F)(F)F)CC3)C(=O)O)cccc12 [Compound 759]
IC50 (α4β1 integrin; [1]): > 1000 nM
IC50 (α4β7 integrin; [2]): < 10 nM

COc1cc(CN2CCC(F)(F)CC2)cnc1-c1cccc2c(C[C@H](NC(=O)C3(C(F)(F)F)CCN(CC(F)F)CC3)C(=O)O)cccc12 [Compound 928]
IC50 (α4β1 integrin; [1]): > 1000 nM
IC50 (α4β7 integrin; [2]): < 10 nM

COc1ccc(CN2CC(F)C2)c(OC)c1-c1cccc2c(C[C@H](NC(=O)C3(C(F)(F)F)CCN(CC(F)(F)F)CC3)C(=O)O)cccc12 [Compound 781]
IC50 (α4β1 integrin; [1]): > 1000 nM
IC50 (α4β7 integrin; [2]): 10 to 100 nM

COc1cccc(CCN2CCC[C@@H](F)C2)c1-c1cccc2c(C[C@H](NC(=O)C3(C(F)(F)F)CCN(CC(F)(F)F)CC3)C(=O)O)cccc12 [Compound 985]
IC50 (α4β1 integrin; [1]): 100 to 1000 nM
IC50 (α4β7 integrin; [2]): < 10 nM

COc1ccc2c(CN3CCCCC3)ccnc2c1-c1cccc2c(C[C@H](NC(=O)C3(C(F)(F)F)CCN(CC(F)(F)F)CC3)C(=O)O)cccc12 [Compound 722]
IC50 (α4β1 integrin; [1]): 10 to 100 nM
IC50 (α4β7 integrin; [2]): < 10 nM

O=C(O)[C@H](Cc1cccc2c(-c3nccc4ccccc34)cccc12)NC(=O)C1(C(F)(F)F)CCN(CC(F)(F)F)CC1 [Compound 723]
IC50 (α4β1 integrin; [1]): > 1000 nM
IC50 (α4β7 integrin; [2]): 10 to 100 nM
